From paper PMC6107548, “Identification and characterization of aspartyl-tRNA synthetase inhibitors against Mycobacterium tuberculosis by an integrated whole-cell target-based approach” (Scientific Reports, 2018)
Values after ≈ are worked out from the molar mass of the structure shown. Like-named read-outs stand apart in the source and are kept apart here.

Legend:
[1] = tested on: M.tuberculosis H37Rv; test: MIC against M. tuberculosis H37Rv (extracellular); assay type: cell-based; details: Mycobacterium tuberculosis
[2] = biological target: T1, Mt-AspRS (Mycobacterium tuberculosis, UniProt P9WFW3); test: tRNA-independent ATP release assay (coupled enzymes, NADPH fluorescence); assay type: biochemical; parameters: made in house; details: Table S2, 0.5 μM enzyme, 2 mM ADPCP, mean of two replicates
T1 sequence (P9WFW3 whole entry): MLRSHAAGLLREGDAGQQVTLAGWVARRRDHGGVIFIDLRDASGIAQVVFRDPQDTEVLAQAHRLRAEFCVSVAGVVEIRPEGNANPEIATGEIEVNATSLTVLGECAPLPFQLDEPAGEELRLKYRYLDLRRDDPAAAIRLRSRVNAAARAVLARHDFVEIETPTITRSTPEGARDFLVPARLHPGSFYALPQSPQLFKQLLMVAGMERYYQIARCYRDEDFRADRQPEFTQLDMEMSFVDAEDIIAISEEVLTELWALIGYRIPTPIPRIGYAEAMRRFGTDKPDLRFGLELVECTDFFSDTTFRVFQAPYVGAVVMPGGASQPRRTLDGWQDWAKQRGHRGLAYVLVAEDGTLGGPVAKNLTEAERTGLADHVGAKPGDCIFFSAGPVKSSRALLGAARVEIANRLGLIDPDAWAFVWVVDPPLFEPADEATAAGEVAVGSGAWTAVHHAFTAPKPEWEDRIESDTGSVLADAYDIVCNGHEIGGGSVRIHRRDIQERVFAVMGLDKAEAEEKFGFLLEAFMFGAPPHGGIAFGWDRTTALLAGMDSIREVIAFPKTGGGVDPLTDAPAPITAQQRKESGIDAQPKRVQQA

[3] = tested on: M.tb H37Rv (intra); test: MIC against intracellular M.tb H37Rv; assay type: cell-based; details: Mycobacterium tuberculosis, Table S2
[4] = tested on: HepG2; test: HepG2 cytotoxicity; assay type: cell-based; details: Homo sapiens, Table S2
[5] = biological target: T1, Mt-AspRS; test: Mechanistic characterization, competition with ADPCP in tRNA-independent reaction; assay type: biochemical; parameters: made in house; details: ADPCP 0-4000 μM; inhibitor 50 and 100 μM
[6] = tested on: M.bovis BCG pMV261::Mt-AspRS; test: microbe, parasite or virus in culture; assay type: cell-based, Mycobacterium bovis BCG; details: for MIC: Mycobacterium tuberculosis variant bovis BCG, BCG
[7] = tested on: M.bovis BCG empty pMV261; test: microbe, parasite or virus in culture; assay type: cell-based; details: Mycobacterium tuberculosis variant bovis BCG
[8] = biological target: T1, Mt-AspRS; test: biochemical
[9] = tested on: N[C@@H](CC(=O)O)C(=O)O; test: purified protein, by the assay type; details: pH 7.7; 37.0 °C
[10] = Table S2, extracellular, read-out: MIC M.tb H37Rv (extra)
[11] = Table S1, read-out: MIC M.tuberculosis H37Rv
[12] = read-out: MIC M. bovis BCG pMV261::AspRS
[13] = read-out: MIC M.bovis BCG pMV261::Mt-AspRS
[14] = read-out: MIC M. bovis empty pMV261 BCG
[15] = read-out: MIC M.bovis BCG empty pMV261

Row | Compound | MIC [1, 10] | IC50 [2] | MIC [3] | IC50 [4] | MIC [1, 11] | mode of inhibition with regard to ADPCP [5] | Ratio (MIC shift) [6] | MIC [6, 12] | MIC [6, 13] | MIC [7, 14] | MIC [7, 15] | IC50 [8] | Km [9]
1 | N#Cc1ccc(COc2ccc3c(c2)CCN(C(=O)/C=C/c2ccc(Nc4ccc(F)cn4)cc2)C3)cc1 [GSK85A] | 2.5 µM (≈ 1.26 µg/mL) | 3.37 µM | > 50.1 µM | 25.1 µM |  |  |  |  |  |  |  |  | 
2 | Nc1ccc(/C=C/C(=O)N2CCC(COc3cccnc3)CC2)cn1 [GSK92A] | > 80 µM | 21.3 µM | > 50.1 µM | > 100 µM |  |  |  |  |  |  |  |  | 
3 | O=C(O)c1ccc(Nc2nc(-c3cccs3)cs2)cc1O [GSK93A] | 31.2 µM (≈ 9.95 µg/mL) |  | > 50.1 µM | > 100 µM | 31.2 µM (≈ 9.95 µg/mL) | Reversible and non-competitive | 4.3 | 1.7 µM (≈ 0.541 µg/mL) | 1.7 µM (≈ 0.541 µg/mL) | 0.4 µM (≈ 0.127 µg/mL) | 0.4 µM (≈ 0.127 µg/mL) | 35.6 µM | 
4 | O=C1OC2(CCC(CNc3ccc(-c4cc(F)cc(F)c4)nn3)CC2)CN1c1cccnn1 (stereo not shown) [GSK97C] | 20 µM (≈ 9.05 µg/mL) |  | 3.16 µM (≈ 1.43 µg/mL) | 40 µM | 20 µM (≈ 9.05 µg/mL) | Reversible and non-competitive | 2.4 | 24.9 µM (≈ 11.3 µg/mL) | 24.9 µM (≈ 11.3 µg/mL) | 10.5 µM (≈ 4.75 µg/mL) | 10.5 µM (≈ 4.75 µg/mL) | 1.12 µM | 
5 | Mt-AspRS (Mycobacterium tuberculosis H37Rv) |  |  |  |  |  |  |  |  |  |  |  |  | 13.8 ± 9.6 µM
